Experimental data as given in patent publication US12351559B2 (Biohaven Therapeutics Ltd., priority 2014, dated 2025).

These compounds were tested against T1, Kv7.2/7.3 (Homo sapiens, UniProt O43525+O43526) (assay: Kv7.2/7.3 activation assay, QPatch planar patch-clamp, single concentration screen). Conditions: Kv7.2/Kv7.3 co-expressing HEK cells, compound 3 μM, steady-state current at end of 2 s pulse to −30 mV.
T1 construct: host or cells: HEK cells, tetracycline-inducible expression
Format: cell-based
Parameters: key: <1.2-fold increase over baseline (−); +/−: as a range from <1.2-fold increase over baseline (−) up to >6-fold increase over baseline (+++); as a range from <1.2-fold increase over baseline (−) up to >6-fold increase over baseline (+++); as a range from <1.2-fold increase over baseline (−) up to >6-fold increase over baseline (+++); >6-fold increase over baseline (+++)

SMILES	Kv7.2/7.3 Activity: increase in current over baseline
C[C@H](C(=O)Nc1nc2ccc(C#N)cc2n1-c1ccc(F)cn1)C(C)(C)C [Example 75, (S)-N-(6-cyano-1-(5-fluoropyridin-2-yl)-1H-benzo[d]imidazol-2-yl)-2,3,3-trimethylbutanamide]	++
C[C@@H](C(=O)Nc1nc2ccc(C#N)cc2n1C1CCC1)C(C)(C)C [Example 76, (R)-N-(6-cyano-1-cyclobutyl-1H-benzo[d]imidazol-2-yl)-2,3,3-trimethylbutanamide]	+
CC(C(=O)Nc1nc2ccc(C#N)cc2n1C1CCC1)C(C)(C)C (stereo not shown) [Example 77, N-(6-cyano-1-cyclobutyl-1H-benzo[d]imidazol-2-yl)-2,3,3-trimethylbutanamide]	+
CC(O)(CC(=O)Nc1nc2ccc(C#N)cc2n1C1CCC1)C1CCC1 (stereo not shown) [Example 78, N-(6-cyano-1-cyclobutyl-1H-benzo[d]imidazol-2-yl)-3-cyclobutyl-3-hydroxybutanamide]	+
C[C@](O)(CC(=O)Nc1nc2ccc(C#N)cc2n1-c1ccc(F)cn1)c1ccccc1 [Example 79, (S)-N-(6-cyano-1-(5-fluoropyridin-2-yl)-1H-benzo[d]imidazol-2-yl)-3-hydroxy-3-phenylbutanamide]	+
CC(O)(CC(=O)Nc1nc2ccc(C#N)cc2n1C1CCC1)C1CCCC1 (stereo not shown) [Example 80, N-(6-cyano-1-cyclobutyl-1H-benzo[d]imidazol-2-yl)-3-cyclopentyl-3-hydroxybutanamide]	+
N#Cc1ccc2nc(NC(=O)CC3(O)CCCC3)n(C3CCC3)c2c1 [Example 81, N-(6-cyano-1-cyclobutyl-1H-benzo[d]imidazol-2-yl)-2-(1-hydroxycyclopentyl)acetamide]	+
CC(C)(C)CC(=O)Nc1nc2cccc(C(C)(C)O)c2n1C1CCC1 [Example 82, N-(1-cyclobutyl-7-(2-hydroxypropan-2-yl)-1H-benzo[d]imidazol-2-yl)-3,3-dimethylbutanamide]	+/−
CC1(C)CCC[C@@H](CC(=O)Nc2nc3ccc(C(C)(C)O)cc3n2C2CCC2)O1 [Example 83, (S)-N-(1-cyclobutyl-6-(2-hydroxypropan-2-yl)-1H-benzo[d]imidazol-2-yl)-2-(6,6-dimethyltetrahydro-2H-pyran-2-yl)acetamide]	++
CC(C)(O)c1ccc2nc(NC(=O)C[C@](C)(O)c3ccccc3)n(C3CCC3)c2c1 [Example 84, (S)-N-(1-cyclobutyl-6-(2-hydroxypropan-2-yl)-1H-benzo[d]imidazol-2-yl)-3-hydroxy-3-phenylbutanamide]	+
CC(C)(O)CC(=O)Nc1nc2ccc(C(C)(C)O)cc2n1C1CCC1 [Example 85, N-(1-cyclobutyl-6-(2-hydroxypropan-2-yl)-1H-benzo[d]imidazol-2-yl)-3-hydroxy-3-methylbutanamide]	+/−
C[C@H](C(=O)Nc1nc2ccc(C(C)(C)O)cc2n1C1CCC1)C(C)(C)C [Example 86, (S)-N-(1-cyclobutyl-6-(2-hydroxypropan-2-yl)-1H-benzo[d]imidazol-2-yl)-2,3,3-trimethylbutanamide]	+++ (>6-fold increase over baseline (+++))
CC(C)(O)c1ccc2nc(NC(=O)C3CC4(CCC4)C3)n(C3CCC3)c2c1 [Example 87, N-(1-cyclobutyl-6-(2-hydroxypropan-2-yl)-1H-benzo[d]imidazol-2-yl)spiro[3.3]heptane-2-carboxamide]	++
C[C@](O)(CC(=O)Nc1nc2ccc(C(F)(F)F)cc2n1C1CCC1)c1ccccc1 [Example 88, (S)-N-(1-cyclobutyl-6-(trifluoromethyl)-1H-benzo[d]imidazol-2-yl)-3-hydroxy-3-phenylbutanamide]	+
CC(C)(O)c1ccc2nc(NC(=O)[C@@H]3CC3(C)C)n(C3CCC3)c2c1 [Example 89, (R)-N-(1-cyclobutyl-6-(2-hydroxypropan-2-yl)-1H-benzo[d]imidazol-2-yl)-2,2-dimethylcyclopropane-1-carboxamide]	++
CC(C)(C)C(=O)Nc1nc2ccc(C(C)(C)O)cc2n1C1CCC1 [Example 90, N-(1-cyclobutyl-6-(2-hydroxypropan-2-yl)-1H-benzo[d]imidazol-2-yl)pivalamide]	+/−
CC1(n2c(NC(=O)C[C@](C)(O)c3ccccc3)nc3ccc(C#N)cc32)CCC1 [Example 95, (S)-N-(6-cyano-1-(1-methylcyclobutyl)-1H-benzo[d]imidazol-2-yl)-3-hydroxy-3-phenylbutanamide]	++

SMILES	Kv7.2/7.3 Activity: increase in current over baseline
CC1(n2c(NC(=O)C[C@@](C)(O)c3ccccc3)nc3ccc(C#N)cc32)CCC1 [Example 96, (R)-N-(6-cyano-1-(1-methylcyclobutyl)-1H-benzo[d]imidazol-2-yl)-3-hydroxy-3-phenylbutanamide]	++
CC(C)(O)c1ccc2nc(NC(=O)CC(O)(C3CC3)C3CC3)n(C3CCC3)c2c1 [Example 97, N-(1-cyclobutyl-6-(2-hydroxypropan-2-yl)-1H-benzo[d]imidazol-2-yl)-3,3-dicyclopropyl-3-hydroxypropanamide]	+/−
O=C(CC(O)(C1CC1)C1CC1)Nc1nc2ccc(C(F)(F)F)cc2n1C1CCC1 [Example 98, N-(1-cyclobutyl-6-(trifluoromethyl)-1H-benzo[d]imidazol-2-yl)-3,3-dicyclopropyl-3-hydroxypropanamide]	+
C[C@](O)(CC(=O)Nc1nc2ccc(Cl)cc2n1C1CCC1)c1ccccc1 [Example 99, (S)-N-(6-chloro-1-cyclobutyl-1H-benzo[d]imidazol-2-yl)-3-hydroxy-3-phenylbutanamide]	+
C[C@@](O)(CC(=O)Nc1nc2ccc(Cl)cc2n1C1CCC1)c1ccccc1 [Example 100, (R)-N-(6-chloro-1-cyclobutyl-1H-benzo[d]imidazol-2-yl)-3-hydroxy-3-phenylbutanamide]	+
CC(C)(O)c1ccc2nc(NC(=O)C3CC34CCC4)n(C3CCC3)c2c1 (stereo not shown) [Example 101, N-(1-cyclobutyl-6-(2-hydroxypropan-2-yl)-1H-benzo[d]imidazol-2-yl)spiro[2.3]hexane-1-carboxamide]	+
CC(C)(O)c1ccc2nc(NC(=O)C3CCC(F)(F)C3)n(C3CCC3)c2c1 (stereo not shown) [Example 102, N-(1-cyclobutyl-6-(2-hydroxypropan-2-yl)-1H-benzo[d]imidazol-2-yl)-3,3-difluorocyclopentane-1-carboxamide]	+/−
C[C@](O)(CC(=O)Nc1nc2ccc(Cl)cc2n1C1CCC1)c1ccc(F)cc1 [Example 103, (S)-N-(6-chloro-1-cyclobutyl-1H-benzo[d]imidazol-2-yl)-3-(4-fluorophenyl)-3-hydroxybutanamide]	+
CC(C)(O)c1ccc2nc(NC(=O)C3CC34CC4)n(C3CCC3)c2c1 (stereo not shown) [Example 105, N-(1-cyclobutyl-6-(2-hydroxypropan-2-yl)-1H-benzo[d]imidazol-2-yl)spiro[2.2]pentane-1-carboxamide]	+
CCC(O)(CC)c1ccc2nc(NC(=O)C3CC34CC4)n(C3CCC3)c2c1 (stereo not shown) [Example 106, N-(1-cyclobutyl-6-(3-hydroxypentan-3-yl)-1H-benzo[d]imidazol-2-yl)spiro[2.2]pentane-1-carboxamide]	+/−
C[C@](O)(CC(=O)Nc1nc2ccc(Cl)cc2n1-c1ccc(F)cc1)c1ccccc1 [Example 107, (S)-N-(6-chloro-1-(4-fluorophenyl)-1H-benzo[d]imidazol-2-yl)-3-hydroxy-3-phenylbutanamide]	+
C[C@@](O)(CC(=O)Nc1nc2ccc(Cl)cc2n1-c1ccc(F)cc1)c1ccccc1 [Example 108, (R)-N-(6-chloro-1-(4-fluorophenyl)-1H-benzo[d]imidazol-2-yl)-3-hydroxy-3-phenylbutanamide]	+/−
CC(C)(O)c1ccc2nc(NC(=O)C3CC34CC4)n(-c3ccc(F)cc3)c2c1 (stereo not shown) [Example 109, N-(1-(4-fluorophenyl)-6-(2-hydroxypropan-2-yl)-1H-benzo[d]imidazol-2-yl)spiro[2.2]pentane-1-carboxamide]	+
CCOC(=O)Cc1ccc2nc(NC(=O)CC(C)(C)C)n(C3CCC3)c2c1F [Example 110, ethyl 2-(1-cyclobutyl-2-(3,3-dimethylbutanamido)-7-fluoro-1H-benzo[d]imidazol-6-yl)acetate]	+
CCOC(=O)Cc1ccc2nc(NC(=O)[C@H]3CC3(C)C)n(C3CCC3)c2c1F [Example 111, ethyl (S)-2-(1-cyclobutyl-2-(2,2-dimethylcyclopropane-1-carboxamido)-7-fluoro-1H-benzo[d]imidazol-6-yl)acetate]	+
CCOC(=O)Cc1ccc2nc(NC(=O)CC(C)(C)C)n(-c3ccc(F)cc3)c2c1F [Example 112, ethyl 2-(2-(3,3-dimethylbutanamido)-7-fluoro-1-(4-fluorophenyl)-1H-benzo[d]imidazol-6-yl)acetate]	++

Same assay, conditions: Kv7.2/Kv7.3 co-expressing HEK cells, compound @ 1 μM

SMILES	Kv7.2/7.3 Activity: increase in current over baseline
CC(C)(C)CC(=O)Nc1nc2ccc(C(C)(C)O)cc2n1-c1ccc(F)cc1 [Example 104, N-(1-(4-fluorophenyl)-6-(2-hydroxypropan-2-yl)-1H-benzo[d]imidazol-2-yl)-3,3-dimethylbutanamide]	+(@ 1 μM)
